Non-standard residues stand in square brackets, D forms with d. Residues, ends and D or L forms follow the SMILES beside them. *: point of attachment. Phenylacetyl(2,3,4,5,6-F5) = O=C(Cc1c(F)c(F)c(F)c(F)c1F)*; Phe(F5) = N[C@@H](Cc1c(F)c(F)c(F)c(F)c1F)C(=O)O; hArg = N=C(N)NCCCC[C@H](N)C(=O)O; 12Ado = NCCCCCCCCCCCC(=O)O; Nle = CCCC[C@H](N)C(=O)O; Orn = NCCC[C@H](N)C(=O)O; Abu = CC[C@H](N)C(=O)O; PhAc = O=C(Cc1ccccc1)*
Assays:
rat pituitary cells = experiment: Inhibition of GHRH(1-29)NH2-stimulated GH release from rat pituitary cells (ELISA); type: cell-based; conditions: analog 20 nM
Procedure: In vitro assessment of the antagonistic activity of GHRH analogs. Rats were decapitated and pituitaries were collected in pre-warmed HBSS (Hanks' Balanced Salt Solution). Tissue was then cut into small pieces and digested in HBSS medium containing 3% BSA, 50 μg/ml gentamycin and 0.5% collagenase for 50 minutes at 37° C. Cells were further dispersed by pipetting and passed through a 100 μm cell strainer with the addition of DMEM containing 50 μg/ml gentamycin, 10% horse serum and 2.5% FBS (growth medium). Cells were harvested at 475×g for 2 minutes, resuspended in fresh growth medium and seeded onto poly-D-lysine-coated 24-well plates (7 pituitaries/plate). Cells were left to recover for 4 days. Growth medium was then replaced with serum-free DMEM for 4 hours and GHRH analogs (at concentration of 20 nM) were added in DMEM containing 0.1% BSA for 30 minutes. Cells were replenished with medium containing the same concentration of the analogs and 1 nM GHRH(1-29)NH2 for 30 minutes. Medium from this step was collected, centrifuged at 800 g for 3 minutes and GH concentration was determined by ELISA (ALPCO Diagnostics, Mill Valley, CA) according to the manufacturer's instruction.

HT-29 cells = experiment: In vitro cell viability, colon cancer HT-29; type: cell-based, human; conditions: 5 μM, 72 h; Table 3B
Procedure: The inhibitory effects of the various synthesized GHRH antagonists were tested in cell proliferation assays in various human cancer cell lines including stomach cancer (KATOIII, N87), colon cancer (HT-29), urothelial cancer (J82, RT4), pancreatic cancer (PANC-1, CFPAC-1), prostatic cancer (PC3), breast cancer (MX-1, HCC1806), ovarian cancer (SK-OV-3, OVCAR-3) and lung cancer (HCC827, H460).
Cell culture. Human cancer cell lines including pancreatic (PANC-1 and CFPAC-1), lung (HCC827 and H460), stomach (NCI-N87 and KATOIII), urothelial (J82, RT4), prostatic (PC3), breast (MX-1 and HCC 1806), colorectal (HT-29), and ovarian (SK-OV-3 and OVCAR-3) were obtained from the American Type Culture Collection (ATCC) and cultured at 37° C. in a humidified 95% air/5% CO2 atmosphere in the medium recommended by ATCC.
In vitro cell viability. Cell viability was analyzed as follows: cancer cells including pancreatic (PANC-1 and CFPAC-1), lung (HCC827 and H460), stomach (NCI-N87 and KATOIII), urothelial (J82, RT4), prostatic (PC3) and breast (MX-1 and HCC 1806), colorectal (HT-29) and ovarian (SK-OV-3 and OVCAR-3) were grown on 96 well plates to ˜60% confluence, the cells were starved for 24 h in culture medium containing 0.5% FBS. […] Cell viability was measured using CellTiter 96 aqueous one solution kit (Promega). […]

[1] = tested on: mouse lung fibroblasts (Mlg 2908); experiment: Cellular respiration, Seahorse XF Cell Mito Stress Test; type: cell-based; conditions: 24 hours
Procedure: (§1) Lung fibroblasts. Newborn mouse lung fibroblasts (Mlg 2908) were obtained from the American Type Culture Collection, Manassas, VA and cultured in Eagle's minimal essential medium. Cells were grown in 6-well plates before incubation with 1 or 5 μM MIA-602 or vehicle, RNA isolation, and oxygen consumption measurements.
Cellular respiration. The effects of MIA-602 on mouse lung fibroblast oxygen consumption was measured using the Agilent Seahorse XF Cell Mito Stress Test (Agilent Technologies, Santa Clara, CA) (Divakaruni A, Paradyse A, Ferrick D, Murphy A, Jastroch M (2014). Methods in Enzymology 547:309-354). Fibroblasts were incubated with vehicle, 1 or 5 μM MIA-602 for 24 hours before measurement of oxygen consumption. One day before assay 80,000 fibroblasts were seeded into Seahorse 24-well plates (n=6 wells per condition). Basal respiration was established and oligomycin, FCCP and rotenone plus antimycin A were added sequentially to measure ATP production, uncoupled respiration; and, non-mitochondrial oxygen consumption (Wangpaichitr, Wu C, Li Y, Nguyen D, Kandemir H, Shah S, Chen S, Feun L, Prince J, Kuo M, Savaraj N (2017). Oncotarget 8(30):49275-49292).

[2] = tested on: mouse lung fibroblasts (Mlg 2908); experiment: RNAseq of cultured lung fibroblasts; type: cell-based; conditions: 1 and 5 μM, normal fibroblasts not exposed to bleomycin
Procedure: as §1
RNA was extracted from cultured fibroblasts using a Direct-zol RNA MicroPrep kit (R2060; Zymo Research, Irvine, CA). Cells were washed with PBS and lysed in TRIreagent™, then purified using Direct-zol RNA columns. DNase I treatment was done in columns and RNA eluted in DNase/Rnase-free water.
RNAseq and Pathway analyses. At least 10 ng of total RNA was used as input for the KAPA RNA HyperPrep Kit with RiboErase (HMR) to create ribosomal RNA-depleted sequencing libraries, including sample indexing, to allow for multiplexing. Cluster generation and sequencing was done on the Illumina cBOT and HiSeq 3000 using reagents provided by Illumina, finally generating >32 million single-end 100 base reads per sample.
De-multiplexed FASTQ files were created with Illumina supplied scripts in BCL2FASTQ software (v2.17). […]
Gene counts were normalized using trimmed mean of M-values (TMM) method. Differential expression between groups was calculated with the exact test implemented in edgeR (Robinson M, McCarthy D, Smyth G (2010). Bioinformatics 26:139-140). […]

## CCCC[C@H](NC(=O)[C@@H](NC(=O)[C@H](CC(=O)O)NC(=O)[C@H](CCC(N)=O)NC(=O)[C@H](CC(C)C)NC(=O)[C@H](CC(C)C)NC(=O)[C@H](CCCCN)NC(=O)[C@H](CCCNC(=N)N)NC(=O)[C@H](C)NC(=O)[C@H](CO)NC(=O)[C@H](CC(C)C)NC(=O)[C@H](CCC(N)=O)NC(=O)[C@H](CC)NC(=O)[C@H](CC(C)C)NC(=O)[C@@H](NC(=O)[C@H](CCCCN)NC(=O)[C@H](CCCNC(=N)N)NC(=O)[C@H](Cc1ccc(OC)cc1)NC(=O)[C@H](CCCCNC(=N)N)NC(=O)[C@H](C)NC(=O)[C@@H](NC(=O)[C@H](Cc1c(F)c(F)c(F)c(F)c1F)NC(=O)[C@@H](NC(=O)[C@H](C)NC(=O)[C@H](CC(=O)O)NC(=O)[C@@H](CCCNC(=N)N)NC(=O)[C@H](Cc1ccc(O)cc1)NC(=O)CCCCCCCCCCCNC(=O)Cc1c(F)c(F)c(F)c(F)c1F)[C@@H](C)CC)[C@@H](C)O)C(C)C)[C@@H](C)CC)C(=O)N[C@H](CCCNC(=N)N)C(=O)N[C@@H](CCCCNC(=N)N)C(=O)NC [AVR-235] ({Phenylacetyl(2,3,4,5,6-F5)-12Ado}-Y[dR]DAI[Phe(F5)]TA[hArg]Y(Me)RKVL[Abu]QLSARKLLQDI[Nle][dR][hArg]-NHMe)
Rat pituitary cells
  Inhibitory effect on the release of GH compared with MIA-602: higher inhibitory effects than MIA-602

## CCCC[C@H](NC(=O)[C@@H](NC(=O)[C@H](CC(=O)O)NC(=O)[C@H](CCC(N)=O)NC(=O)[C@H](CC(C)C)NC(=O)[C@H](CC(C)C)NC(=O)[C@H](CCCN)NC(=O)[C@H](Cc1c[nH]cn1)NC(=O)[C@H](C)NC(=O)[C@H](CO)NC(=O)[C@H](CC(C)C)NC(=O)[C@H](CCC(N)=O)NC(=O)[C@H](CC)NC(=O)[C@H](CC(C)C)NC(=O)[C@@H](NC(=O)[C@H](CCCN)NC(=O)[C@H](Cc1c[nH]cn1)NC(=O)[C@H](Cc1ccc(OC)cc1)NC(=O)[C@H](CCCCNC(=N)N)NC(=O)[C@H](C)NC(=O)[C@@H](NC(=O)[C@H](Cc1c(F)c(F)c(F)c(F)c1F)NC(=O)[C@@H](NC(=O)[C@H](C)NC(=O)[C@H](CC(=O)O)NC(=O)[C@@H](CCCNC(=N)N)NC(=O)[C@H](Cc1ccc(O)cc1)NC(=O)CCCCCCCCCCCNC(=O)Cc1ccccc1)[C@@H](C)CC)[C@@H](C)O)C(C)C)[C@@H](C)CC)C(=O)N[C@H](CCCNC(=N)N)C(=O)N[C@@H](CCCCNC(=N)N)C(N)=O [MIA-602, PhAC-Ada, Tyr D-Arg, Asp, Ala, Ile, 5FPhe, Thr, Ala, Har, Tyr(Me), His, Orn, Val, Leu, Abu, Gin, Leu, Ser, Ala, His, Orn, Leu, Leu, Gin, Asp, Ile, Nle, D-Arg, Har NH2, reference compound] ({PhAc-12Ado}-Y[dR]DAI[Phe(F5)]TA[hArg]Y(Me)H[Orn]VL[Abu]QLSAH[Orn]LLQDI[Nle][dR][hArg]-NH2)
HT-29 cells
  In vitro relative inhibitory potency in comparison to MIA-602, HT-29: 1
[1]; 5 μM
  Spare respiratory capacity: increased
[1]; 5 μM, compared to vehicle
  Basal oxygen consumption / basal respiration: increased basal oxygen consumption
  Maximal, uncoupled respiration after FCCP: increased
[1]; 1 and 5 μM
  Non-mitochondrial respiration after antimycin A and rotenone: appeared to increase non-mitochondrial respiration
[2]
  Fibroblast gene expression: significant downregulation of genes involved in collagen fibril organization, cell-matrix adhesion and elastic fiber assembly

Reference: patent publication US11993640B2, “Treating inflammatory lung disease” (United States Government as represented by the Department …, priority 2019, dated 2024)
